“Also recorded” adds a separate entry of the source. Read-outs that look alike come from different tables or passages of the source.
Assays:
spinal cord neurons = experiment: H202-induced apoptosis (condensed and fragmented nuclei) in cultured spinal cord neurons; format: cell-based
Experimental: Central to the therapeutic intervention of spinal cord injury is the belief that spinal cord neurons undergo apoptosis and possibly necrosis under oxidative stress. […] In contrast, control neurons show predominantly diffuse nuclear staining. […] This percentage increased to ˜58% for 500 μM H2O2. […] In contrast, immunoreactivity to cytochrome C oxidase (COX), a marker in the inner mitochondrial membrane remained independent of the mitochondrial insults by H202. The differential staining between cytochrome C and COX affords a secondary method to assess whether a given neuron has undergone mitochondrial permeability transition (MPT).

[1] = test system: cultured neonatal rat ventricular myocytes; experiment: H202-induced depolarization of mitochondrial membrane potential (TMRE) in cardiac myocytes; format: cell-based; settings: 50 μM H202; for onset of H202-induced depolarization and loss of TMRE fluorescence: pretreatment 50 μM or 100 μM for 30 minutes
Experimental: TMRE is a lipophilic cation that partitions selectively into the negatively charged mitochondria. Neonatal cultured myocytes (6 days in culture) were loaded with 10 nM TMRE for 60 minutes at 37° C. […] As a control, myocytes were not pretreated with any drug. TMRE was excited at 555 nm and fluorescence emission was detected at 590 nm. Fluorescence images were taken every 2 minutes. At the arrow (FIG. 3), myocytes were subjected to oxidative stress by adding 50 μM H202. Plots were normalized to baseline, and are shown as F/F0, where F is the emitted fluorescence at any given time and F0 is the baseline fluorescence before addition of H202. […] The traces were drawn from the mean values of 7-10 experiments.
TMRE was used as an indicator of mitochondrial membrane potential. The myocytes were pretreated with 50 μM Mito GSH for 30 minutes and then washed to remove the antioxidant from the solution in which myocytes were suspended. In control, myocytes were not pretreated with any drug. TMRE was excited at 555 run and fluorescence emission was detected at 590 nm. Fluorescence images were taken every 2 minutes to avoid photobleaching and phototoxicity. Myocytes were subjected to oxidative stress by adding 50 μM H202.

brain striatal neurons = experiment: NMDA-induced depolarization of mitochondrial membrane (TMRE) in striatal neurons; format: cell-based; settings: pretreatment 50 μm for 30 minutes; NMDA (100 μM)
Experimental: The effects of mitochondrial-targeted antioxidants upon onset of NMDA (100 μM) induced depolarization of mitochondrial membrane of brain striatal neurons are summarized in Table 1.
Tetramethylrhodamine methyl ester (TMRE) was used as an indicator of mitochondrial membrane potential. […] Control neurons were not pretreated with any drug.

Rat heart mitochondria = settings: pretreatment 5 mM for 30 minutes, 5 μM rotenone and 100 μM t-BuOOH
Experimental: Mitochondrial membrane potential was measured by safranine. Safranine is a positively charged dye that accumulates in mitochondria on establishment of an electrical potential across the mitochondrial inner membrane. However, its fluorescence is quenched by its accumulation in mitochondria in response to mitochondrial membrane potential. Rat heart mitochondria (0.2 mg protein/200 μl) were transferred to a well containing 0.3 ml of 150 mM KCl, 5 mM HEPES, 15, μM safranine, 5 mM succinate buffer, 5 μM rotenone and 100 μM t-BuOOH. The mitochondria were placed in a multiplate reader.
Fluorescence measurements were made with excitation and emission wavelengths of 485 and 585 nm, respectively.

rat heart = experiment: Post-ischemic recovery in Langendorff perfused rat heart; parameters: species or system Sprague-Dawley rat; settings: 50 μM for 10 minutes prior to ischemia
Experimental: Following an equilibration period of approximately 25 minutes, global normothermic ischemia was imposed for 25 minutes, followed by reperfusion for 30 minutes.

C=CC(O)CC(=O)O (centres unmarked) [Compound 3-HP, 3-hydroxy-4-pentenoate] was tested, and the “percentage of cells showing condensed and fragmented nuclei” value (spinal cord neurons; 3-HP depletion of mitochondrial glutathione prior to 250 μM H202 treatment) was 70%.
OO [Compound H202, hydrogen peroxide] was tested, and the “neurons with condensed and fragmented nuclei” value (spinal cord neurons; 250 μM H202) was ~42% and the “neurons with condensed and fragmented nuclei” value (spinal cord neurons; 500 μM H2O2) was ~58%.
In the case of N[C@@H](CCC(=O)N[C@@H](CS)C(=O)NCC(=O)O)C(=O)O [Glutathione, L-γ-glutamyl-L-cysteinylglycine, reference compound], the “time for onset of H202-induced depolarization” value ([1]; pretreatment 100 μM non-targeted glutathione) is reported as “did not significantly increase the time for onset of H202-induced depolarization”.
For C[N+](C)(C)CCOC(=O)CNC(=O)[C@H](CS)NC(=O)CC[C@H](N)C(=O)O.[Cl-] [Mito GSH, Glutathione choline ester chloride], the “Time of Onset of Depolarization” value (brain striatal neurons) was 17.5 ± 2.1 min, the “time TMRE fluorescence persisted after H202 treatment” value ([1]; pretreatment 50 μM for 30 minutes) was 50 min and the “onset of H202-induced depolarization and loss of TMRE fluorescence” value [1] was “delayed onset of H202-induced depolarization and loss of TMRE fluorescence; also recorded: significantly enhanced the time for onset of H202-induced depolarization; also recorded: delay the onset of H202-induced depolarization”. For the same molecule, the “time for onset of H202-induced depolarization” value ([1]; pretreatment 100 μM) was 53 ± 3.6 min.
In the case of CC(=O)N[C@@H](CS)C(=O)OCC[N+](C)(C)C [Mito NAC, N,S-acetyl-L-cysteine choline ester], the “Time of Onset of Depolarization” value (brain striatal neurons) is reported as 20.5 ± 3.6 min, the “onset of H202-induced depolarization and loss of TMRE fluorescence” value [1] is reported as “delayed onset of H202-induced depolarization and loss of fluorescence” and the “onset of H202-induced depolarization and loss of TMRE fluorescence” value ([1]; listed as mito NAC) is reported as “delay the onset of H202-induced depolarization”.
CC(=O)N[C@@H](CS)C(=O)OCC[N+](C)(C)C [N-acetyl cysteine choline ester, N-acetyl-L-cysteine choline ester] was tested, and the “release of intramitochondrial safranine (depolarization of mitochondrial membrane potential)” value (from here on “release of intramitochondrial safranine”) (Rat heart mitochondria; listed as NAC CE) was “minimize the depolarization of mitochondrial membrane potential”.
For CC(=O)N[C@@H](CS)C(=O)O [N-acetyl cysteine, N-acetyl-L-cysteine], the “Time of Onset of Depolarization” value (brain striatal neurons) was 10.5 ± 1.9 min, the “onset of ischemic contracture” value (rat heart) was “appeared to delay the onset of ischemic contracture” and the “Overall recovery of left-ventricular developed pressure” value (rat heart; 25 minutes ischemia, 30 minutes reperfusion) was 15.7%.
C[N+](C)(C)CCOC(=O)[C@@H](N)CS.[Cl-] [cysteine choline ester, [2-(2-Amino-3-mercapto-L-propionyloxy)ethyl]trimethylammonium chloride] was tested, and the “release of intramitochondrial safranine” value (Rat heart mitochondria) was “diminished the release of intramitochondrial safaranine” and the “release of intramitochondrial safranine” value (Rat heart mitochondria; listed as CYS CE) was “minimize the depolarization of mitochondrial membrane potential”.

— patent publication US20110257107A1, “Compounds for Delivering Amino Acids or Peptides with Antioxidant Activity into Mitochondria” (University of Rochester, priority 2006, published 2011)
